Calls of active or inactive are those of the source. No cut-off for these calls is given here.
Columns and labels:
[1] = molecular target: Histone deacetylase 1 (Homo sapiens) (UniProt Q13547); experiment: Activation of HDAC1 using Fluor-de-Lys as substrate at 100 uM by spectrofluorometry
[2] = molecular target: T1, Protein deacetylase HDAC6 (Homo sapiens) (UniProt Q9UBN7); experiment: Inhibition of HDAC6 using Fluor-de-Lys as substrate at 100 uM by spectrofluorometry
T1 sequence (whole entry): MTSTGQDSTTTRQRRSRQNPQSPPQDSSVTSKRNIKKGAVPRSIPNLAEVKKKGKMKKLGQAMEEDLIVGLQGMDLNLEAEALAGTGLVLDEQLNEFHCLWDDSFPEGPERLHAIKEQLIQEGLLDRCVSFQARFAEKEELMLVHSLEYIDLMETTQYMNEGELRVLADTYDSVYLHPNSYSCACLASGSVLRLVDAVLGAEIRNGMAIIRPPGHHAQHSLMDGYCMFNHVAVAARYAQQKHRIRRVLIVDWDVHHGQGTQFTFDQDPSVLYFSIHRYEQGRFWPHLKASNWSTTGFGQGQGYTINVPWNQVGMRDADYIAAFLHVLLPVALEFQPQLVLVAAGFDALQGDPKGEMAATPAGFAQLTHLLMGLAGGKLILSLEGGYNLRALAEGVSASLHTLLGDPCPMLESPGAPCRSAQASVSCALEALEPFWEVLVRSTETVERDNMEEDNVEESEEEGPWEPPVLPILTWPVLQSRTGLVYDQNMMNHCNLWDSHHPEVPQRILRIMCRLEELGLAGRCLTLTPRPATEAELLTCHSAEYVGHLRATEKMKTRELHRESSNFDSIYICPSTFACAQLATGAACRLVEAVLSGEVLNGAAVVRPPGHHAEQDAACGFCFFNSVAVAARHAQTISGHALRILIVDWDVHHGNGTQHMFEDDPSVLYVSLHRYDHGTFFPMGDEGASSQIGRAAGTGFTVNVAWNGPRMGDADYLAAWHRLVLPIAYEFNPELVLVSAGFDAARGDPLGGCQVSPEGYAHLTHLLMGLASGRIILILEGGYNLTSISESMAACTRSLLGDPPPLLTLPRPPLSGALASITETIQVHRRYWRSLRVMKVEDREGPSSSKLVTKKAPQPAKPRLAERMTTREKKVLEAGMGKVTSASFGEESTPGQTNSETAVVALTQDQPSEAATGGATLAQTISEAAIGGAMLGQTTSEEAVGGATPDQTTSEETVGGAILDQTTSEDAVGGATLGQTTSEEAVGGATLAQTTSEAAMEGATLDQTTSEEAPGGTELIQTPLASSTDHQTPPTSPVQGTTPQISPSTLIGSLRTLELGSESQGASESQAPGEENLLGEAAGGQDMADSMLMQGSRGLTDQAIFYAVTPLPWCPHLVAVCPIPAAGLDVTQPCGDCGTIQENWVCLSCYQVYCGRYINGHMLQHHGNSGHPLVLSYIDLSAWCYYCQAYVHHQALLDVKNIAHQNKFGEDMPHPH

[3] = molecular target: T2, Polyamine deacetylase HDAC10 (Homo sapiens) (UniProt Q969S8); experiment: Inhibition of HDAC10 using Fluor-de-Lys as substrate at 100 uM by spectrofluorometry
T2 sequence (whole entry): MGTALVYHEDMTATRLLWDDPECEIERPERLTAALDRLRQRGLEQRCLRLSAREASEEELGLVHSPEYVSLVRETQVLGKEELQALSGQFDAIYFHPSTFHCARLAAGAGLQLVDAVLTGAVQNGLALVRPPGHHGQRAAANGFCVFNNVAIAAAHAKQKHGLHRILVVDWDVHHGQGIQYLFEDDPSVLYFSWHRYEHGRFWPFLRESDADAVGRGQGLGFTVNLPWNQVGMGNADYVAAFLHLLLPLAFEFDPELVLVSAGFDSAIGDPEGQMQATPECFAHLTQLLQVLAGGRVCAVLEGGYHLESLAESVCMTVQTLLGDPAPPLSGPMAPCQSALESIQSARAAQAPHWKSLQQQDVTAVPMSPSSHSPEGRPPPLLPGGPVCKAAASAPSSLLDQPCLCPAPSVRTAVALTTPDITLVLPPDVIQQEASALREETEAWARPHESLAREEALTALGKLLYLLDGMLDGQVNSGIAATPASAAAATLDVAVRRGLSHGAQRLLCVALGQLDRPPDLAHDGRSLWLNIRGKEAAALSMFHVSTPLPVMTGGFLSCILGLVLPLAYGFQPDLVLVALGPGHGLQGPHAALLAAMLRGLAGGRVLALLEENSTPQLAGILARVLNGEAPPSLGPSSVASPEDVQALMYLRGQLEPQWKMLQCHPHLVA

[4] = molecular target: Histone deacetylase 3 (Homo sapiens) (UniProt O15379); experiment: Activation of HDAC3 using Fluor-de-Lys as substrate at 100 uM by spectrofluorometry
[5] = molecular target: Histone deacetylase 4 (Homo sapiens) (UniProt P56524); experiment: Inhibition of HDAC4 using trifluoroacetyl-lysine containing fluorogenic substrate at 100 uM by spectrofluorometry
[6] = molecular target: Histone deacetylase 3 (Homo sapiens) (UniProt O15379); experiment: Activation of HDAC3 using Fluor-de-Lys as substrate at 10 uM by spectrofluorometry
[7] = molecular target: T1, Protein deacetylase HDAC6 (Homo sapiens); experiment: Activation of HDAC6 using Fluor-de-Lys as substrate at 10 uM by spectrofluorometry
[8] = molecular target: Histone deacetylase 3 (Homo sapiens) (UniProt O15379); experiment: Inhibition of HDAC3 using Fluor-de-Lys as substrate at 100 uM by spectrofluorometry
[9] = molecular target: Histone deacetylase 4 (Homo sapiens) (UniProt P56524); experiment: Activation of HDAC4 using trifluoroacetyl-lysine containing fluorogenic substrate at 10 uM by spectrofluorometry
[10] = molecular target: Histone deacetylase 1 (Homo sapiens) (UniProt Q13547); experiment: Inhibition of HDAC1 using Fluor-de-Lys as substrate at 100 uM by spectrofluorometry
[11] = molecular target: Histone deacetylase 2 (Homo sapiens) (UniProt Q92769); experiment: Inhibition of HDAC2 using Fluor-de-Lys as substrate at 100 uM by spectrofluorometry
[12] = molecular target: T1, Protein deacetylase HDAC6 (Homo sapiens); experiment: Activation of HDAC6 using Fluor-de-Lys as substrate at 100 uM by spectrofluorometry
[13] = molecular target: T3, Histone deacetylase 11 (Homo sapiens) (UniProt Q96DB2); experiment: Inhibition of HDAC11 using Fluor-de-Lys as substrate at 100 uM by spectrofluorometry
T3 sequence (whole entry): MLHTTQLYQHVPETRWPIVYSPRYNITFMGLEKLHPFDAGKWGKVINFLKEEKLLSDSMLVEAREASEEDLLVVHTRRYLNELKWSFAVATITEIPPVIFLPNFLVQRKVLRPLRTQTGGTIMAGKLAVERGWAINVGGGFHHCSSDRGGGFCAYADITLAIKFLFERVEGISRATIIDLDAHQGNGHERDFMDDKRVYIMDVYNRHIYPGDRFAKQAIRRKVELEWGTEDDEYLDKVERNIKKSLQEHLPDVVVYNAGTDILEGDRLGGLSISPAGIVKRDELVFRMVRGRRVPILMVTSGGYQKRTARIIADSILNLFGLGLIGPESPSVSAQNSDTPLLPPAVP

[14] = molecular target: T4, Histone deacetylase 8 (Homo sapiens) (UniProt Q9BY41); experiment: Activation of recombinant human HDAC8 assessed as ratio of the initial rate of reaction in the absence and presence of compound using Fluor-de-Lys as substrate at 10 uM by spectrofluorometry
T4 sequence (whole entry): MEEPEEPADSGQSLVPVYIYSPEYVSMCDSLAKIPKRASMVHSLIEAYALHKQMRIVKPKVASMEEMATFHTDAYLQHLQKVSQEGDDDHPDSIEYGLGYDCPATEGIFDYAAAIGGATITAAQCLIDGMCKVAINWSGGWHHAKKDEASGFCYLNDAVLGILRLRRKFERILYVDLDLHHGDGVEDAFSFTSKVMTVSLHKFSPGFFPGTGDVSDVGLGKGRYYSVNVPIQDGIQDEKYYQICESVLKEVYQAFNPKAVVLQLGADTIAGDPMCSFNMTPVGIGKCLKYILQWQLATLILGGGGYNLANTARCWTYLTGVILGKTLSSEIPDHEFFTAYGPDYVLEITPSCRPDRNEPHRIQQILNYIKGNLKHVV

[15] = molecular target: Histone deacetylase 1 (Homo sapiens) (UniProt Q13547); experiment: Activation of HDAC1 using Fluor-de-Lys as substrate at 10 uM by spectrofluorometry
[16] = molecular target: Histone deacetylase 4 (Homo sapiens) (UniProt P56524); experiment: Activation of HDAC4 using trifluoroacetyl-lysine containing fluorogenic substrate at 100 uM by spectrofluorometry
[17] = molecular target: Histone deacetylase 2 (Homo sapiens) (UniProt Q92769); experiment: Activation of HDAC2 using Fluor-de-Lys as substrate at 100 uM by spectrofluorometry
[18] = molecular target: Histone deacetylase 2 (Homo sapiens) (UniProt Q92769); experiment: Activation of HDAC2 using Fluor-de-Lys as substrate at 10 uM by spectrofluorometry
[19] = molecular target: T2, Polyamine deacetylase HDAC10 (Homo sapiens); experiment: Activation of HDAC10 using Fluor-de-Lys as substrate at 100 uM by spectrofluorometry
[20] = molecular target: T2, Polyamine deacetylase HDAC10 (Homo sapiens); experiment: Activation of HDAC10 using Fluor-de-Lys as substrate at 10 uM by spectrofluorometry

Sequence of Histone deacetylase 3 (Homo sapiens) (O15379 whole entry): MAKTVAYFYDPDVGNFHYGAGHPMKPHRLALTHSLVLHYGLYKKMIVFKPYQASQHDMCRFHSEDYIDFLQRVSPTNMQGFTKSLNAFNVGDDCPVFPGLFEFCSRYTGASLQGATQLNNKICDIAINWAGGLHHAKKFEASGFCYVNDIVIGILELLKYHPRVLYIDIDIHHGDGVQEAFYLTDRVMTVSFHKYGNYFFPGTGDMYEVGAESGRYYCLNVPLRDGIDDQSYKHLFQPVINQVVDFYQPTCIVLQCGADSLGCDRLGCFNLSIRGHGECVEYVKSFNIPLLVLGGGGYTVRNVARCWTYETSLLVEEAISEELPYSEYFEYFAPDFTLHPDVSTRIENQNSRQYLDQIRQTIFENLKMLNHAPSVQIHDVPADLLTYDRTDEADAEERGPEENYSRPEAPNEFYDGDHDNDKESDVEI
Sequence of Histone deacetylase 1 (Homo sapiens) (Q13547 whole entry): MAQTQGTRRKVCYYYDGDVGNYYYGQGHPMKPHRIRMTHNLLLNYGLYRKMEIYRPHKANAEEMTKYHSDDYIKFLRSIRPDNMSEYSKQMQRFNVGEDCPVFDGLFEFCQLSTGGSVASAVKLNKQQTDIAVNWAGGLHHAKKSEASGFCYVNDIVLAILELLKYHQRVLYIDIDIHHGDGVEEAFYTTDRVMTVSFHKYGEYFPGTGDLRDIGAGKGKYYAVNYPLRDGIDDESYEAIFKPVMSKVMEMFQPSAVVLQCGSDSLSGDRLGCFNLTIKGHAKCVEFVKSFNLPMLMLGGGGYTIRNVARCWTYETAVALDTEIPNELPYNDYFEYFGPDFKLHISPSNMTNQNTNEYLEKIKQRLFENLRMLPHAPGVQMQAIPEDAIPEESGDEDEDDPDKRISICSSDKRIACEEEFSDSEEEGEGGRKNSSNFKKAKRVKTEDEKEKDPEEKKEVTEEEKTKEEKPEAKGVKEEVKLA
Sequence of Histone deacetylase 2 (Homo sapiens) (Q92769 whole entry): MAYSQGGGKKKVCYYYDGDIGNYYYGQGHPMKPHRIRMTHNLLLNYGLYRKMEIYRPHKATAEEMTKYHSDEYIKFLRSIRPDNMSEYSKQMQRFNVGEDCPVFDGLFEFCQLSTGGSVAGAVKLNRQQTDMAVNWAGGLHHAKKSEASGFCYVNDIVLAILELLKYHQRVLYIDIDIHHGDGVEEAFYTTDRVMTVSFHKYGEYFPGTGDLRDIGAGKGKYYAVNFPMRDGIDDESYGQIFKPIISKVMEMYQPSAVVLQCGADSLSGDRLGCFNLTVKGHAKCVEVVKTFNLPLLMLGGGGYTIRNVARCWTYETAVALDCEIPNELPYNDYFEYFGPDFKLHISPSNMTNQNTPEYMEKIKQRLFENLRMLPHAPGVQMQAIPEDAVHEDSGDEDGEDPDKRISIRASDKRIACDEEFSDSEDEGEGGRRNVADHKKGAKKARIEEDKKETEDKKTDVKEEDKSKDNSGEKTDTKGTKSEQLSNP
Sequence of Histone deacetylase 4 (Homo sapiens) (P56524 whole entry): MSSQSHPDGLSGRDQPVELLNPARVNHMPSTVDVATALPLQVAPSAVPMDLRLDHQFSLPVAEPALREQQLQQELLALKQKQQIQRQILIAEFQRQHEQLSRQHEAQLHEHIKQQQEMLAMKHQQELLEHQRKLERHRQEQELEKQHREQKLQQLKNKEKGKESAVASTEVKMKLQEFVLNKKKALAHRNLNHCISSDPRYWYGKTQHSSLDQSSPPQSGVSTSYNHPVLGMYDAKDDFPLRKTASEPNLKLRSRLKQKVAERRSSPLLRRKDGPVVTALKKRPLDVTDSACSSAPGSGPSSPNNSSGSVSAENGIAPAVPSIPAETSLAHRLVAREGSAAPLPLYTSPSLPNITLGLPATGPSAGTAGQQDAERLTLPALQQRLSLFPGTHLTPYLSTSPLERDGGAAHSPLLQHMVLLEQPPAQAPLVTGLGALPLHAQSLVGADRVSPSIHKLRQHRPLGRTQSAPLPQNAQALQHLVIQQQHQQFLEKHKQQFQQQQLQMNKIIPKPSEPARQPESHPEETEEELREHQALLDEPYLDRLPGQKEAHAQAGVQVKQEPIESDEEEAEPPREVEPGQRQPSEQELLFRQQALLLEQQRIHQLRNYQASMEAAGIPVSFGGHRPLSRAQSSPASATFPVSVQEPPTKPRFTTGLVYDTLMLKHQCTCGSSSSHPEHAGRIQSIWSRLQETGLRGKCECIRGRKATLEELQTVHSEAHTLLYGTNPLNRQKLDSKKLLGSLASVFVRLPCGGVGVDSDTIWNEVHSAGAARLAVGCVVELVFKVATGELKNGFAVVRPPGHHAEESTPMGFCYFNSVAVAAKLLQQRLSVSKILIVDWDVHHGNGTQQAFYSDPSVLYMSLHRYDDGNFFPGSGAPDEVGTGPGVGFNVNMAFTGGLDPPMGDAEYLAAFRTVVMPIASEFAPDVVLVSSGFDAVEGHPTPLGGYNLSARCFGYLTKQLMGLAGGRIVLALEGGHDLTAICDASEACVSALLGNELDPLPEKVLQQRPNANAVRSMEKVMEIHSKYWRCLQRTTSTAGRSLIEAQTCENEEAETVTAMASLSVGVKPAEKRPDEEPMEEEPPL

SMILES	Activity [1]	inhibition [2]	inhibition [3]	Activity [4]	inhibition [5]	Activity [6]	Activity [7]	inhibition [8]	Activity [9]	inhibition [10]	inhibition [11]	Activity [12]	inhibition [13] [%]	fold change (FC) [14]	Activity [15]	Activity [16]	Activity [17]	Activity [18]	Activity [19]	Activity [20]
O=C(NC(=S)NCc1ccc(-c2ccccc2)cc1)c1ccccc1	inactive	inactive	5%	inactive	inactive	inactive	inactive	inactive	inactive	inactive	10%	inactive	10	1.1	inactive	inactive	–	–	–	–
C[C@@H](NC(=S)NC(=O)c1ccccc1)c1ccccc1	4%	45%	5%	–	inactive	–	–	6%	inactive	–	6%	–	8	1.5	inactive	inactive	–	–	–	–
O=C(NC(=S)NCc1cccs1)c1ccccc1	inactive	10%	47%	–	inactive	–	–	5%	inactive	inactive	9%	–	12	3	inactive	inactive	–	–	–	–
COc1cc(NC(=S)NC(=O)c2ccccc2)cc(OC)c1	inactive	5%	10%	–	inactive	–	–	5%	inactive	inactive	6%	–	10	8.4	inactive	inactive	–	–	–	–
O=C(NC(=S)NCc1cc(C(F)(F)F)cc(C(F)(F)F)c1)c1ccccc1	inactive	10%	10%	inactive	inactive	inactive	–	inactive	inactive	inactive	inactive	–	10	1.1	inactive	inactive	inactive	inactive	–	–
O=C(NC(=S)NCc1ccccc1)c1ccccc1F	inactive	inactive	5%	inactive	inactive	inactive	inactive	inactive	inactive	inactive	inactive	inactive	14	1	inactive	inactive	inactive	inactive	–	–
O=C(NC(=S)NCc1ccc(F)cc1)c1ccccc1	–	inactive	inactive	inactive	inactive	inactive	inactive	inactive	inactive	5%	inactive	inactive	6	3	–	inactive	inactive	inactive	inactive	inactive
C[C@H](NC(=S)NC(=O)c1ccccc1)c1ccccc1	inactive	inactive	10%	inactive	inactive	inactive	inactive	inactive	inactive	inactive	5%	inactive	10	4.5	inactive	inactive	–	–	–	–
